The data set can be described thus: Solubility in organic solvent, checked visually at room temperature. The following applies: room temperature (25±5° C.), stirred 3 to 5 minutes, visual check, % (w/w). The data set is classed as physicochemical.

The source of these data is patent US20250162979A1, “P-DIPHENYL COMPOUND DERIVATIVE MIXTURE AND METHOD OF PRODUCING THE SAME” (HODOGAYA CHEMICAL CO., LTD., priority 2021, published 2025).

The structures appear in SMILES notation.

For `Cc1ccc(N(c2ccccc2)c2ccc(-c3ccc(N(c4ccccc4)c4ccc(C)cc4)cc3)cc2)cc1` [A-1, 4,4′-bis(4-methyldiphenylamino)-p-diphenyl], where the note is “10 g tetrahydrofuran”, the “Solubility in THF” value is given as 49.9%. Under “10 g toluene”, this compound displayed a Solubility in toluene of 24.2%.
